For 86 compounds, AC50 results are on record in PubChem BioAssay AID463204 (Broad Institute, 2010).

Activity calls are given as the source filed them.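 Rule for the calls: active = AC50 no more than ten times the top concentration tested, that is within one log above it; inconclusive = flat curve fit with activity between 30% and 70%, or invalid poor fit; inactive = AC50 beyond ten times the top tested dose.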 A value given as a limit tells only on which side of the number the result lay.

The test system of the assay is S. cerevisiae Mot1-301 ts growth rescue, BacTiter-Glo ATP luminescence. The experiment in a line: growth rescue of Mot1-301 ts yeast, confirmation, SUMOylation pathway inhibitor project, whole organism, S. cerevisiae, Mot1-301 ts mutant, luminescence, dose retest (AID 463204).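 Note: growth at restrictive 38.5 degrees C of Mot1-301 OY566 strain; actives raise luminescence by restoring growth of the ts mutant at high temperature.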
For the compound `CCOC(=O)c1cc([N+](=O)[O-])c([N+](=O)[O-])cc1NC(C)=O`, the AC50 was 8.71 µM. For `Cc1cccc(C)c1NC(=O)C(Cl)C(=O)c1ccccc1` (stereo unspecified), the AC50 is 0.68 µM. With `CCc1nnc2n1N=C(c1ccc(Cl)cc1)CS2` the figure was > 42 µM (inactive); with `COc1cc(NC(=S)N2CCN(C(=O)C3CCCO3)CC2)c(OC)cc1Cl` (stereo unspecified), > 42 µM (inactive). For `CN(C)CCNC(=O)c1onc(CSc2ccc(F)c(F)c2)c1C(=O)NCCN(C)C`, the AC50 was > 42 µM (inactive). For `CCCc1ccc(S(=O)(=O)NCCc2ccncc2)cc1` the value was > 42 µM (inactive). For the compound `Cc1ccc(C2C(C(=O)c3cccs3)=C(O)C(=O)N2c2ccc(S(N)(=O)=O)cc2)cc1` (stereo unspecified), the AC50 is > 42 µM (inactive). For `CCN1CCN(C(=O)c2ccc3nc(-c4ccccc4)c(-c4ccccc4)nc3c2)CC1` the value was > 42 µM (inactive).

For the compound `COc1ccc(-c2[nH]ncc2CNCCn2cccn2)c(F)c1`, the AC50 is > 42 µM (inactive). With `COc1ccccc1-c1sc2ccccc2c1-c1ccc2c(c1)OCO2` the figure was > 42 µM (inactive); with `CC(C)(C)c1ccc(CN(Cc2ccccc2)C(c2ccccn2)c2nnnn2C(C)(C)C)cc1` (stereo unspecified), > 42 µM (inactive); with `COc1ccc(/C=C2\SC(=S)N(CCCC(=O)Nc3cc(C)on3)C2=O)cc1OC`, > 42 µM (inactive). Turning to `CNC(=O)c1ccccc1S(=O)c1ccccc1COC(C)=O` (stereo unspecified), the AC50 was > 42 µM (inactive). Take `Cc1ccc2c(c1)C(=O)N1[C@H]3c4ccccc4OC[C@@H]3[C@H](c3ccccc3)[C@]1(C)C(=O)N2`: the AC50 is 0.86 µM. As to `O=C(CSc1nc(=O)n2ccccc2n1)N1CCN(c2ccccc2)CC1`, the AC50 was > 42 µM (inactive).

Turning to `O=C(Nc1cccc(O)c1)C(Cc1ccccc1)N1C(=O)c2cccc3cccc(c23)C1=O` (stereo unspecified), the AC50 was > 42 µM (inactive). `CN1C(=O)C(=Cc2cn(CC(=O)N3CCCC3)c3ccccc23)C(=O)N(C)C1=O`: the AC50 was > 42 µM (inactive).

In the case of `CCOc1cc(S(=O)(=O)NCc2ccc3c(c2)OCO3)c(C)cc1C`, the AC50 was > 42 µM (inactive). For `COC(=O)c1ccc(N2C(=O)CC(NCc3ccccc3)C2=O)cc1` (stereo unspecified), the AC50 is > 42 µM (inactive). With `CC1C(=O)CC(c2ccccc2)N(C)C1c1ccccc1` (stereo unspecified) the figure was 33.7 µM. In the case of `CC(C)C(CC(=O)NCc1ccco1)c1ccco1` (stereo unspecified), the AC50 was > 42 µM (inactive). For `CCOc1ccc(N(CC(=O)NC2CCC(C)CC2)S(=O)(=O)c2c(C)noc2C)cc1` (stereo unspecified), the AC50 was > 42 µM (inactive). `O=C1CN(C(=O)COC(=O)COc2ccc3c(c2)CCC3)c2ccccc2N1`: the AC50 is > 42 µM (inactive).

`O=C(CSc1nc2ccc(Nc3nc(N4CCOCC4)nc(N4CCOCC4)n3)cc2s1)N1CCOCC1`: the AC50 is > 42 µM (inactive). For `Cc1ccc(NC(=O)CN2CCN(CCN=CC3=C(O)CC(C)(C)CC3=O)CC2)cc1` the value was > 42 µM (inactive); for `COc1ccccc1C(=O)N(NC(=O)Oc1ccccc1)C(C)(C)C`, > 42 µM (inactive); for `CCOc1ccc2nc(C(C)O)[nH]c2c1` (stereo unspecified), > 42 µM (inactive). As for `Clc1ccccc1C(c1ccccc1)(c1ccccc1)n1ccnc1`, the AC50 was 3.47 µM.

As for `CCOc1ccc(S(=O)(=O)N2CCN(C(=O)CN3C(=O)NC4(CCCC4)C3=O)CC2)cc1`, the AC50 is > 42 µM (inactive).

On to `COc1ccc(-c2csc(NC(=O)CS(=O)(=O)c3ccc(F)cc3)n2)cc1OC`, for which the AC50 was > 42 µM (inactive). For `O=C(NC1CCCCC1)c1ccc2c(=O)n(CC3CCCO3)c(=O)[nH]c2c1` (stereo unspecified), the AC50 was > 42 µM (inactive). On to `CCCCC(=O)NCCc1ccc(S(N)(=O)=O)cc1`, for which the AC50 is > 42 µM (inactive). For `CN1C2CCC1CC(OC(=O)c1ccc([N+](=O)[O-])cc1)C2` (stereo unspecified) the value was > 42 µM (inactive).

As to `CC/C(=N\NC(=O)c1nnn(-c2nonc2N)c1-c1cccs1)c1ccccc1`, the AC50 is > 42 µM (inactive).

As for `C=CCNC(=O)NC(=O)COC(=O)/C(C#N)=C/c1cc(C)n(CC(C)C)c1C`, the AC50 is > 42 µM (inactive). For `CCOC(C(=O)OCCCN(CC)CC)(c1ccccc1)c1ccccc1` the value was > 42 µM (inactive); for `COCCCNC(=O)c1cc2cc([N+](=O)[O-])cc(OC)c2oc1=O`, > 42 µM (inactive); for `CCC12CN3CCN(CC(C3)/C1=N/NC(=O)c1ccncc1)C2`, > 42 µM (inactive). With `Cc1ccc(N(C(C)C(=O)O)S(=O)(=O)c2c(C)n[nH]c2C)cc1` (stereo unspecified) the figure was > 42 µM (inactive). For the compound `CS(=O)(=O)N(CC(=O)N1CCCC1)c1cccc(Cl)c1Cl`, the AC50 is > 42 µM (inactive). Turning to `Cc1c(C(=O)OCC(=O)Nc2ccc(S(N)(=O)=O)cc2)oc2c1ccc1ccccc12`, the AC50 was > 42 µM (inactive).

Regarding `COc1ccc(NS(=O)(=O)c2cccc(C(=O)NCCCn3ccnc3)c2)cc1`, the AC50 was > 21 µM (inactive).

As to `Cc1onc(-c2ccccc2Cl)c1C(=O)N1CCc2ccccc2C1`, the AC50 was 34 µM. For the compound `CCOP(=O)(OCC)c1cc(CC)ccc1O`, the AC50 is > 42 µM (inactive).

Consider `Cc1ccccc1-c1nnc(CN2CCC(C)CC2)o1`, for which the AC50 was > 42 µM (inactive). Take `Cc1ccc(N2C(=O)c3cccc4c(N5CCN(C)CC5)ccc(c34)C2=O)c2cccnc12`: the AC50 is > 42 µM (inactive).

For the compound `O=C(COc1ncnc2ccccc12)Nc1ccc(Cl)c(S(=O)(=O)N2CCOCC2)c1`, the AC50 was > 42 µM (inactive).

Regarding `COc1cccc(Cn2cnc3c(NS(=O)(=O)c4cccc(Cl)c4Cl)c(C)c(C)cc32)c1`, the AC50 is > 110 µM (inactive). Regarding `CCOc1ccc(-c2nc(C#N)c(N3CCOCC3)o2)cc1`, the AC50 is > 42 µM (inactive). As to `CCOC(=O)c1c(C)[nH]c(C(=O)COC(=O)c2ccncc2)c1C`, the AC50 was > 42 µM (inactive).

For `Cc1nc2ccccc2c(=O)n1CC(=O)N1CCOCC1`, the AC50 was > 42 µM (inactive).

Take `O=C(O)c1cc(S(=O)(=O)Nc2ccc(OCc3ccccc3)cc2)ccc1Br`: the AC50 is > 42 µM (inactive).

With `N#C/C(=C\c1c(N(Cc2ccccc2)Cc2ccccc2)nc2ccccn2c1=O)C(N)=O`, the AC50 is > 42 µM (inactive).

On to `NC(=O)CC(NC(=O)Cc1cccc2ccccc12)c1ccc(NCCCN2CCCC2=O)c([N+](=O)[O-])c1` (stereo unspecified), for which the AC50 was > 42 µM (inactive).

On to `CC1=Nc2ccc(C)cc2N(Cc2ccccc2)C(=O)C1`, for which the AC50 was > 42 µM (inactive). For `CN(C)/C=N/NC(=O)c1ccccc1` the value was > 42 µM (inactive). For `COc1ccccc1CSc1ncc(-c2ccc([N+](=O)[O-])cc2)[nH]1` the value was > 42 µM (inactive); for `CCOC(=O)N1CCN(C(=O)c2ccc3ccccc3c2)CC1`, > 42 µM (inactive). `COCCN(C(=O)CSc1nnc(-c2ccc(C)cc2)n1N)c1c(N)n(Cc2ccccc2)c(=O)[nH]c1=O`: the AC50 was > 42 µM (inactive). On to `CCOP(=O)(OCC)C(NC(=O)c1cccc([N+](=O)[O-])c1)C(Cl)(Cl)Cl` (stereo unspecified), for which the AC50 is > 42 µM (inactive). In the case of `C=CCn1c(=N)c(C(=O)NCCCOC)cc2c(=O)n3ccccc3nc21`, the AC50 was > 42 µM (inactive).

On to `CCn1c(SCC(=O)N/N=C/c2ccccc2OCC(=O)O)nnc1-c1ccc(C(C)(C)C)cc1`, for which the AC50 is 32.7 µM.

Consider `COC/C=C/C1=CC2=CC(=O)C(C)(OC(=O)c3cnc4ccccc4n3)C(=O)C2=CN1CCOC` (stereo unspecified), for which the AC50 is > 42 µM (inactive). For `Cc1ccc(N(C(=O)Cn2nnc3ccccc32)C(C(=O)NC2CCCCC2)c2cn(C)nc2C)cc1` (stereo unspecified) the value was > 21 µM (inactive); for `Cc1nc(-c2cccc(S(=O)(=O)N3CCOCC3)c2)cs1`, > 42 µM (inactive). As to `Cc1c(NP(=O)(c2ccc(Br)cc2)c2ccc(Br)cc2)c(=O)n(-c2ccccc2)n1C`, the AC50 was > 42 µM (inactive). As to `Cc1sc(-n2c(C)cc(C=C3C(=O)NC(=O)NC3=O)c2C)c(C#N)c1C`, the AC50 was > 42 µM (inactive). For `CC(OC(=O)c1cc(S(=O)(=O)N2CCOCC2)ccc1F)C(=O)NCc1ccc2c(c1)OCO2` (stereo unspecified), the AC50 is > 42 µM (inactive).

As to `c1ccc2nc3c(nc2c1)OCC1CCCCN31` (stereo unspecified), the AC50 was > 42 µM (inactive).

`O=C(NCc1ccco1)c1ccc(Br)c(S(=O)(=O)N2CCCCC2)c1`: the AC50 is > 42 µM (inactive). In the case of `CN(CCOc1ccc(-c2ccn(S(=O)(=O)c3cccc4ccccc34)n2)cc1)c1ccccn1`, the AC50 was > 42 µM (inactive). On to `CC1CCN(S(=O)(=O)c2ccc(NC(=O)c3cccs3)cc2)CC1`, for which the AC50 was > 42 µM (inactive). With `CCOC(=O)Nc1sc(=S)n(C)c1C` the figure was > 42 µM (inactive). On to `Cc1cc(C)nc(SCC2COc3ccccc3O2)n1` (stereo unspecified), for which the AC50 was > 42 µM (inactive).

For the compound `CC(=O)C(C(c1ccccc1)c1c[nH]c2ccccc12)[N+](=O)[O-]` (stereo unspecified), the AC50 was 33 µM. For the compound `O=C(NC1CCCCCC1)C1CCN(S(=O)(=O)c2cccc3cccnc23)CC1`, the AC50 is > 42 µM (inactive). Consider `O=C(CSc1nc2ccc(Cl)cc2[nH]1)NCc1ccco1`, for which the AC50 is > 42 µM (inactive). As to `O=c1cc(COc2ncnc3ccccc23)nc2sccn12`, the AC50 is > 42 µM (inactive). For the compound `COc1ccccc1N1CCN(CCN2C(=O)C3CCCCN3C2=O)CC1` (stereo unspecified), the AC50 was > 42 µM (inactive). In the case of `O=C(NC1CCCCC1)c1n[nH]c2c1CCCCC2`, the AC50 was > 42 µM (inactive). With `CCOC(=O)c1ccc(NC(=O)c2c(NC(=O)CCC(=O)O)sc3c2CCCCC3)cc1` the figure was > 42 µM (inactive). Turning to `Cc1ccc2c(C)c(C(=O)N(C)C(C)c3ccncn3)oc2c1C` (stereo unspecified), the AC50 was > 42 µM (inactive). With `Cc1ccc(C(=O)NCC(=O)Nc2ccc3c(c2)OCCO3)cc1`, the AC50 was > 21 µM (inactive). In the case of `O=Nc1c(-c2cccc([N+](=O)[O-])c2)nc2ncccn12`, the AC50 is 4.09 µM. For `CCn1nc(CC(=O)Nc2ccc(-n3cnnn3)c(C)c2)c2ccccc2c1=O`, the AC50 is > 42 µM (inactive). On to `COc1ccc2nc(SCC(=O)N(C)CC(=O)Nc3ccc(F)cc3)[nH]c2c1`, for which the AC50 is > 42 µM (inactive).
